The source of these data is ChEMBL document CHEMBL1201862, “PubChem BioAssay data set” (2004).

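Cells were grown in 96-well plates and exposed to each compound for 48 hours at five concentrations; endpoints were interpolated linearly between bracketing concentrations, or set to the highest concentration if not reached. GI50 = concentration required for 50% inhibition of growth.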 Calls of active or inactive are those of the source. Cut-off read from the data, not from the text of the source: active = GI50 up to about 1.1 µM and inactive = higher. *1 amine or outer side, *2 acyl side, *3 side chain or, on linkers, in order; H or OH if unused. Where a SMILES comes first, the peptide text is derived from it. Bridges are numbered along the chain shown (N, C = ends). Roman numbers before positions name the chains, in order. [ ]: non-standard residue; d: D form. Actinocin(1to9) = Cc1c2oc3c(C)ccc(C(=O)[*:2])c3nc-2c(C(=O)[*:1])c(N)c1=O; NMeV = CN[CH](C(=O)O)C(C)C; Sar = CNCC(=O)O

Test systems include A498; ACHN; HCC 2998; HCT-15; HL-60; HOP-62; HT-29; IGROV-1; K562; LOX IMVI; MDA-MB-435; MOLT-4; NCI-H522; OVCAR-4; RXF 393; SF-295; SK-OV-3; SN12C; SNB-19; SNB-75.
What all share (assay): NCI tumour cell line growth inhibition, 48 h

Take `CN1CCN(Cc2nc3cccc4c3c([n+]2[O-])-c2ccccc2-4)CC1`: the GI50 is 15.8 µM (inactive) with A498; 12.2 µM (inactive) in the assay with ACHN; 53 µM (inactive) in the assay with HCC 2998; 29 µM with HCT-15; 33.1 µM (inactive) in the assay with HL-60; 30 µM (inactive) in the assay with HOP-62. Also, the GI50 is 12.4 µM (inactive) in the assay with HT-29; 32.5 µM (inactive) with IGROV-1; 29.6 µM (inactive) in the assay with K562; 16.7 µM (inactive) in the assay on LOX IMVI; 15.6 µM (inactive) in the assay with MDA-MB-435; 12.4 µM (inactive) with MOLT-4. Moreover, the GI50 in the assay with NCI-H522 is 14.3 µM (inactive); in the assay with OVCAR-4, 25.2 µM (inactive); with RXF 393 it was 10.8 µM (inactive); in the assay on SF-295 it was 41 µM (inactive); with SK-OV-3, 59.3 µM (inactive); in the assay on SN12C, 11.7 µM (inactive). Besides, the GI50 is 16.9 µM (inactive) in the assay on SNB-19 and 33 µM (inactive) in the assay on SNB-75.

As for `COc1ccc(CC2NC(=O)C(NC(=O)c3c4nc5c(C(=O)NC6C(=O)NC(Cc7ccc(OC)cc7)C(=O)N7CCCC7C(=O)N(C)CC(=O)N(C)C(C(C)C)C(=O)OC6C)ccc(C)c5oc-4c(C)c(=O)c3N)C(C)OC(=O)C(C(C)C)N(C)C(=O)CN(C)C(=O)C3CCCN3C2=O)cc1` (stereo not given) (I: TY(Me)P[Sar][NMeV] / II: TY(Me)P[Sar][NMeV]; ester I:1-I:C, II:1-II:C; linker I:N-II:N via Actinocin(1to9); configuration not given here), the GI50 in the assay on A498 was 0.00299 µM (active); in the assay with ACHN it was < 0.001 µM (active); in the assay with HCC 2998, 0.0012 µM (active); in the assay on HCT-15, 0.0579 µM; with HL-60, < 0.001 µM (active); in the assay with HOP-62 it was 0.00681 µM (active). For the same compound, the GI50 in the assay with HT-29, with IGROV-1, in the assay on K562, in the assay with LOX IMVI, in the assay on MDA-MB-435 and in the assay on MOLT-4 was < 0.001 µM (active) throughout. The GI50 is < 0.001 µM (active) with NCI-H522; 0.0485 µM (active) with OVCAR-4; 0.01 µM (active) with RXF 393; 0.01 µM (active) in the assay with SF-295; 0.0116 µM (active) in the assay on SK-OV-3; < 0.001 µM (active) with SN12C. The GI50 was < 0.001 µM (active) in the assay with SNB-19 and 0.00109 µM (active) with SNB-75.
